One series deals with PDE4. The conditions noted are these: read-out: IC50 (PDE4 inhibitor); cited from earlier work.
Series [1] concerns the target T1, MTB CdnP (Mycobacterium tuberculosis, UniProt P71615). Nature of the series: Differential radial capillary action of ligand assay (DRaCALA). The class given is binding. To be noted: 20 μM MTB CdnP, 200 pM 32P c-di-AMP; C82 even at 300 μM. The procedure:
(§1) FIG. 7A: unlabeled c-di-AMP inhibits ^32P-c-di-AMP sequestering by MTB CdnP in a concentration dependent manner. FIG. 7B: C82 effects on ^32P-c-di-AMP sequestering by MTB CdnP. […] CDA=c-di-AMP. ***=p-value<0.001. Statistical analysis conducted using the student's t-test.
(§2) Next, we sought to determine C82 mode of inhibition. Firstly, we confirmed that C82 does indeed bind to MTB CdnP, using intrinsic fluorescence assay^20. […] We then determined whether C82 could displace bound c-di-AMP from MTB CdnP. […] We also used a secondary fluorescent polarization displacement assay to confirm this finding. Briefly, fluorescent labeled c-di-GMP was incubated with MTB CdnP and treated with different concentrations of C82, or c-di-AMP in the presence of calcium to inhibit the cleavage of the bound CDN′″. […] We therefore concluded that C82 inhibits MTB CdnP by binding to a non-cyclic dinucleotide binding site. Kinetics studies reveal that C82 inhibits MTB CdnP with an apparent inhibition constant of approximately 8 μM (FIG. 8). Future structural work, beyond the scope of this work should help clarify the binding site of C82.
5 μl of the reaction mixture was pipetted onto dry untreated nitrocellulose membrane (GE Healthcare) and allowed to dry at room temperature. The nitrocellulose membrane was exposed to the GE Storage Phosphor screen for 8 h and then visualized with Typhoon™ FLA 9500 biomolecular imager.

The next series relates to PDE10. To be noted: read-out: IC50 (PDE10 inhibitor); cited from earlier work.
For a further series, the system named is PDE3. The conditions noted are these: read-out: IC50 (PDE3 inhibitor); cited from earlier work.
The target in series [2] is T1, MTB CdnP. As to the kind of experiment: IC50 determination of MTB CdnP inhibition, coralyne assay. To be noted: 50 nM MTB CdnP and 80 μM c-di-AMP, read-out: IC50 of MTB CdnP enzymatic activity inhibition. Format: biochemical.
The target of series [3] is T1, MTB CdnP. As to the kind of experiment: HPLC analysis of c-di-AMP cleavage by MTB CdnP. The class given is biochemical. To be noted: 20 μM compound, 100 nM MTB CdnP, 70 μM c-di-AMP, 37° C.
Series [4] addresses T1, MTB CdnP. The class given is biochemical. The conditions noted are these: 20 to 150 μM inhibitor, 0.5 μM MTB CdnP, 1 h at 37° C.
In series [5] the target is T1, MTB CdnP. As to the kind of experiment: Kinetics study (Dixon plot) by coralyne assay. To be noted: 50 nM MTB CdnP, 30° C., read-out: apparent inhibition constant. The class given is biochemical. The procedure:
FIG. 8: C82 Dixon plot. Initial velocity was determined using slope of c-di-AMP hydrolysis kinetics.
as §2

Series [6] concerns the target T1, MTB CdnP. As to the kind of experiment: Intrinsic fluorescence binding assay. The conditions noted are these: 2 μM MTB CdnP, varying concentrations, 1× PBS. How it is done: as §2
Solutions containing 2 μM MTB CndP, and varying concentrations of C82 in 1× PBS were incubated for 30 min at room temperature. Fluorescence spectra were obtained by measuring fluorescence intensities in the 310 nm to 400 nm range following an excitation at 290 nm wavelength.

Series [7] concerns the target T1, MTB CdnP. As to the kind of experiment: Fluorescence polarization competition assay. The class given is binding. To be noted: 150 μM MTB CdnP, 50 nM F-c-di-GMP, calcium. The procedure:
as §1, §2
Fluorescence polarization was determined using Biotek Cytation 5 multi-mode reader (excitation 485 nm/20 and emission 528 nm/20). Anisotropy was calculated using the GEN 5™ microplate reader and imaging software.
On the technique in general: In fluorescence polarisation assays a small probe gives low polarisation when free and higher when bound to something large.

The target in the next series is T2, PDE5A (Homo sapiens, UniProt O76074).
T2 construct: purchased Reaction Biology
Nature of the series: Cyclic mononucleotide phosphodiesterase inhibition (PDE5A), Transcreener fluorescence polarization assay. Format: biochemical. To be noted: 10 μM of compound, 1 μM cGMP, 1 h. How it is done: Cyclic mononucleotide phosphodiesterase inhibition (PDE5A): 10 μM of compound was added to PDE5A in Buffer (10 mM Tris, pH 7.5, 5 mM MgCl2, 0.01% Brij 35, 1 mM DTT, and 1% DMSO). 1 μM cGMP was added and the reaction was incubated for 1 h. The assay used detects the reaction product, GMP, by Transcreener Fluorescence polarization assay (Reaction Biology).

The test system of series [8] is mammalian cells (MDA-MB-231, and MRC-5). To be noted: up to 100 μM, 24 h.
A further series deals with Yybt (Bacillus subtilis, UniProt P37484). Nature of the series: Selectivity, HPLC analysis of Yybt reaction. The conditions noted are these: 70 μM c-di-AMP, 1 μM Yybt, 37° C., 60 min.
The target in another series is RocR (Pseudomonas aeruginosa, UniProt Q9HX69). As to the kind of experiment: Selectivity, HPLC analysis of RocR reaction. To be noted: 25 μM c-di-GMP, 10 nM RocR, 37° C., 60 min.
The next series concerns the target T3, ENPP1 (Homo sapiens, UniProt P22413).
T3 sequence (P22413 1-925): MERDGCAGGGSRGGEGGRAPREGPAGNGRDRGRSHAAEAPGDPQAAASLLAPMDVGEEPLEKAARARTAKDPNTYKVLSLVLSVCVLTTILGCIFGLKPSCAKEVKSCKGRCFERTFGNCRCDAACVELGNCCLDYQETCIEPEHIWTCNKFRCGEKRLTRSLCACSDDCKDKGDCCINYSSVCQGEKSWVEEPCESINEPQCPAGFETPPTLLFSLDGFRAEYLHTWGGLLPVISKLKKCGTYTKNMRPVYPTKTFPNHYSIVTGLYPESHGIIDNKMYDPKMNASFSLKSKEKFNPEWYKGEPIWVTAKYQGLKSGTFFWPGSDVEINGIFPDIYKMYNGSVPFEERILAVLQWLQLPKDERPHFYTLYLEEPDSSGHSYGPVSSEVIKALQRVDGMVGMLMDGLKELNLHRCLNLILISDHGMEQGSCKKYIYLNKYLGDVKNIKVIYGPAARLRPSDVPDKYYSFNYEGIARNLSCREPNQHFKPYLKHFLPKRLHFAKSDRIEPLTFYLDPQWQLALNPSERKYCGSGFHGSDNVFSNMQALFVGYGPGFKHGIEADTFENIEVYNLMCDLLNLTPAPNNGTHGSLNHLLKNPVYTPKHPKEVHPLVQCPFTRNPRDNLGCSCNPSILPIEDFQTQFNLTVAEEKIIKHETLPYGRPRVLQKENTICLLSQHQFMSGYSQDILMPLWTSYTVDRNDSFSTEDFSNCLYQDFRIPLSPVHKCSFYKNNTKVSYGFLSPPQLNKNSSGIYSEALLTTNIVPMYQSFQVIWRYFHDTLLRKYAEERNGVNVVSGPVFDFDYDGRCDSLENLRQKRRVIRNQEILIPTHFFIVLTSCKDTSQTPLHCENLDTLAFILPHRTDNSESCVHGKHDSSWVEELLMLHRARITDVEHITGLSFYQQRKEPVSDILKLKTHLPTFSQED
Nature of the series: Selectivity, HPLC analysis of ENPP1 reaction. The conditions noted are these: 25 μM cGAMP, 4.58 nM ENPP1, 37° C., 60 min.

The next series addresses poxin (Vaccinia virus, UniProt Q01225). As to the kind of experiment: Selectivity, HPLC analysis of poxin reaction. The conditions noted are these: 20 μM 2′3 cGAMP, 5 nM poxin, room temperature, 20 min.
Another series concerns GBS-CdnP. As to the kind of experiment: Selectivity, HPLC analysis of GBS CdnP reaction. To be noted: 50 μM c-di-AMP, 100 nM GBS CdnP, room temperature, 15 min.

By IC50 is commonly meant the midpoint of a concentration-inhibition curve.

As for `CCOc1cc([C@@H](CS(C)(=O)=O)N2C(=O)c3cccc(NC(C)=O)c3C2=O)ccc1OC` [apremilast], the IC50 with PDE4 is 0.074 µM.
Regarding `Nc1ncnc2c1ncn2[C@@H]1O[C@@H]2COP(=O)(O)O[C@H]3[C@@H](O)[C@H](n4cnc5c(N)ncnc54)O[C@@H]3COP(=O)(O)O[C@H]2[C@H]1O` [c-di-AMP, reference compound], at MTB CdnP [1], the “displacement of radiolabeled c-di-AMP from MTB CdnP (DRaCALA)” value is “could displace radiolabeled c-di-AMP”.
Consider `COc1ccc(Cc2nccc3cc(OC)c(OC)cc23)cc1OC` [papaverine], for which the IC50 with PDE10 was 0.0923 µM.
`CSc1ccc(C(=O)c2[nH]c(=O)[nH]c2C)cc1` [enoximone]: the IC50 with PDE3 is 10 µM.
Take `CCc1cc2c(=O)n(CC(=O)Nc3ccccc3OC)cnc2s1` [Compound C82]: on MTB CdnP [2], the half-inhibitory concentration (IC50) came to 17.4 µM. Also, the “inhibition of c-di-AMP cleavage by MTB CdnP (HPLC), 3 h incubation” value against MTB CdnP [3] (3 h) is listed as “most potent inhibitory effects”. Further, on MTB CdnP [3] (12 h), the “inhibition of c-di-AMP cleavage by MTB CdnP (HPLC), overnight (12 h) incubation” value is “retained any inhibitory effect”. Besides, the “inhibition of c-di-AMP hydrolysis by MTB CdnP (TLC), varying inhibitor concentrations” value against MTB CdnP [4] is on record as “most potent inhibition”. Further, the Ki at MTB CdnP [5] was roughly 8 µM. For the same compound, on MTB CdnP [6], the “binding to MTB CdnP (intrinsic fluorescence decay)” value was “does bind to MTB CdnP”. Besides, the “displacement of radiolabeled c-di-AMP from MTB CdnP (DRaCALA)” value at MTB CdnP [1] is “did not displace radiolabeled c-di-AMP”. Further, the “displacement of fluorescent labeled c-di-GMP from MTB CdnP (fluorescence polarization)” value on MTB CdnP [7] was “did not displace the fluorescent labeled c-di-GMP”. Besides, the “% inhibition (PDE5A)” value at PDE5A turned out to be 32.00%. The “cytotoxicity against mammalian cells (cell viability)” value in series [8] is recorded as “did not significantly inhibit cell viability”. Further, the “inhibition of Yybt” value against Yybt is recorded as “did not inhibit”. Moreover, on RocR, the “inhibition of RocR” value is “did not inhibit”. For the same compound, the “inhibition of ENPP1” value at ENPP1 was “did not inhibit”. Also, at poxin, the inhibition of poxin result was “did not inhibit”. Besides, the “inhibition of GBS-CdnP” value in the series with GBS-CdnP was “did not inhibit”.
